Several values for one entry are separate records, joined by “and”; a condition that tells them apart may be missing. Identical values can stand only once. Entries after “also recorded” stand apart in the source; their conditions may differ. Like-named read-outs stand apart in the source and are kept apart here. Marks after values point to notes of the source that are not given here.
What was measured:
[1] = In vitro genetic toxicity studies
hematologic malignancies = assay: Phase 1 study in advanced hematologic malignancies, clinical response
central nervous system = assay: Neurofunctional study (FOB, motor activity); settings: male rats
[2] = tested on: hemodynamic and electrocardiographic parameters; assay: Cardiovascular telemetry study; format: in vivo, cynomolgus monkey; settings: male monkeys
Description: Four non-naive, male monkeys implanted with radiotelemetry transmitters were utilized during the conduct of this study.

[3] = In vivo rat micronucleus assay
[4] = Plasma protein binding, rat; format: in vitro ADME; settings: 100 μM (41700 ng/mL)
Description: […]. […] […].

[5] = Clinical study in healthy adult subjects, pharmacokinetics; format: in vivo, human; settings: for AUC(0-24) / AUC(0-inf) / Cmax / T1/2 / half-life / AUC: mean (% CV); for AUC: read-out: AUC(0-tau)
[6] = 13-week repeat-dose safety study, rat
[7] = Clinical study in healthy adult subjects, safety
human P-glycoprotein = biological target: T1, human P-glycoprotein (Homo sapiens, UniProt P08183); assay: Interaction with P-glycoprotein, Caco-2; format: in vitro ADME; settings: Caco-2 cell monolayers
T1 construct: endogenous in cells; host or cells: Caco-2
T1 sequence (P08183 whole entry): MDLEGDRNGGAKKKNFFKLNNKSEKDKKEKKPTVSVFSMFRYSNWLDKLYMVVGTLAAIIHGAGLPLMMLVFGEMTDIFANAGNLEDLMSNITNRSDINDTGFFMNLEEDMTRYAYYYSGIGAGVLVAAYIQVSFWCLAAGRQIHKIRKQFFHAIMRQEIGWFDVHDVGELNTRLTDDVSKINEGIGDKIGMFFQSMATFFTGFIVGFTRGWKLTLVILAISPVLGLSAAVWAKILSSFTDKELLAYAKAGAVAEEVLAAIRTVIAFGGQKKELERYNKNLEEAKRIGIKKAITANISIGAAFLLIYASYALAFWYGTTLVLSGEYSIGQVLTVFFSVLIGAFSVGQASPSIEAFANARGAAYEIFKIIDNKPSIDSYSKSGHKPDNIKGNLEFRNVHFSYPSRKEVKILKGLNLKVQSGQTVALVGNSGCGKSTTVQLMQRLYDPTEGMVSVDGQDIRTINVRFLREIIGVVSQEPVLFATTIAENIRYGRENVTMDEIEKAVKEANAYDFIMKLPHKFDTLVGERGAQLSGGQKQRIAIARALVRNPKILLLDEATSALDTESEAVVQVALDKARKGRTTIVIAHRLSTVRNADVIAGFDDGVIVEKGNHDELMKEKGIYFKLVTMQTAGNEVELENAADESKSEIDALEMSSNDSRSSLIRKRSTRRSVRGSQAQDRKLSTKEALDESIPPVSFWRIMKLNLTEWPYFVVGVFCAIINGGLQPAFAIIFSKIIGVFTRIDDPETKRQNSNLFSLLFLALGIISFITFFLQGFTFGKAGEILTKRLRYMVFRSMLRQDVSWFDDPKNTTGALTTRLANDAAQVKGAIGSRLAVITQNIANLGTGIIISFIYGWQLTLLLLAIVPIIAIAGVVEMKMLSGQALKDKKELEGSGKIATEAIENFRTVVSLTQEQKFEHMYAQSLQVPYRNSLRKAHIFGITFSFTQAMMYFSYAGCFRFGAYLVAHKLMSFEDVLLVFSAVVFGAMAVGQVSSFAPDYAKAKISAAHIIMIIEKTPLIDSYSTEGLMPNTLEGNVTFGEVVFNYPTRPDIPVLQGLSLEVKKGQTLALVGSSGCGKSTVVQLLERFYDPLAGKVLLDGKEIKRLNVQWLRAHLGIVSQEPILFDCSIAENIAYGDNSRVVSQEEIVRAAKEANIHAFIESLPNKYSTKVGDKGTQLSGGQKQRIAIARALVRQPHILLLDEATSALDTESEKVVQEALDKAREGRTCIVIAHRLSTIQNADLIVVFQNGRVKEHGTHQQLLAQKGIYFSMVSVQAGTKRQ

Pharmacokinetics, mouse = format: in vivo, BALB/c mice
Caco-2 cell monolayers = assay: Membrane permeability, Caco-2 cell monolayers; format: in vitro ADME, human
[8] = DDI portion, 200 mg q12h ketoconazole
[9] = human, plasma, oral, 1 mg, 1 mg Q12 h, Day 1
[10] = human, plasma, oral, 1 mg, 1 mg Q12 h, Day 14
[11] = human, plasma, oral, 2 mg, 2 mg Q12 h, Day 1
[12] = human, plasma, oral, 2 mg, 2 mg Q12 h, Day 14
[13] = human, plasma, oral, 5 mg, 5 mg Q12 h, Day 1
[14] = human, plasma, oral, 5 mg, 5 mg Q12 h, Day 14
[15] = human, plasma, oral, 10 mg, 10 mg Q24 h, Day 1
[16] = human, plasma, oral, 10 mg, 10 mg Q24 h, Day 14
[17] = multiple doses for 2 weeks (n=36)

C[C@H](Nc1ncnc2[nH]cnc12)c1cc2cccc(Cl)c2c(=O)n1-c1ccccc1 [Compound 292]
genetic toxicity [1]: no genetic toxicity
onset of clinical activity (hematologic malignancies; CLL/SLL): Rapid onset
responses in evaluable patients (hematologic malignancies; CLL/SLL, 8, 15, and 25 mg BID dose levels): ⅔
Best Observed Response CR (hematologic malignancies; CLL/SLL, 11 evaluable): 0 n
Best Observed Response PR (hematologic malignancies; CLL/SLL, 11 evaluable): 6 n
Best Observed Response SD (hematologic malignancies; CLL/SLL, 11 evaluable, four nodal responses): 4^c n
Best Observed Response PR (hematologic malignancies; HL, 2 evaluable): 0 n
Best Observed Response SD (hematologic malignancies; HL, 2 evaluable): 0 n
Best Observed Response CR (hematologic malignancies; MCL, 3 evaluable): 0 n
Best Observed Response PR (hematologic malignancies; MCL, 3 evaluable): 2 n
Best Observed Response SD (hematologic malignancies; MCL, 3 evaluable): 0 n
responses in evaluable patients (hematologic malignancies; MCL, 8, 15, and 25 mg BID dose levels): 1/1
Best Observed Response CR (hematologic malignancies; MM, 3 evaluable): 0 n
Best Observed Response PD (hematologic malignancies; MM, 3 evaluable): 2 n
Best Observed Response PR (hematologic malignancies; MM, 3 evaluable): 0 n
Best Observed Response PD (hematologic malignancies; T-Cell Lymphoma, 6 evaluable): 3 n
doses at which responses were observed (hematologic malignancies; T-cell lymphoma and Hodgkin lymphoma): ≥ 50 mg BID
Best Observed Response CR (hematologic malignancies; aNHL, 3 evaluable): 0 n
Best Observed Response PD (hematologic malignancies; aNHL, 3 evaluable): 2 n
Best Observed Response PR (hematologic malignancies; aNHL, 3 evaluable): 0 n
tumor mass (hematologic malignancies; all indications and all dose levels evaluated): Reduction in tumor mass
responses in evaluable patients (hematologic malignancies; iNHL, 8, 15, and 25 mg BID dose levels): ½
Best Observed Response PR (hematologic malignancies; iNHL, 13 evaluable): 7 n
Best Observed Response SD (hematologic malignancies; iNHL, 13 evaluable): 4 n
doses at which responses were observed (hematologic malignancies; iNHL, CLL/SLL, and MCL): ≤ 50 mg BID
pulmonary metastases by PET/CT (hematologic malignancies; patient, enteropathy-associated T-cell lymphoma, 2 cycles, 60 mg BID): complete resolution
locomotor activity (central nervous system; 2 h after a 350 mg/kg oral dose): Significant decreases
effects on the central nervous system (central nervous system; dose levels≦50 mg/kg): No effects
qualitative or quantitative FOB parameters (central nervous system; single oral dose up to 350 mg/kg, up to 24 h post-dose): no changes
hemodynamic or electrocardiographic parameters ([2]; single oral dose of 5, 30, and 150 mg/kg): No Compound 292-related effects
waveform abnormalities or arrhythmias ([2]; up to 150 mg/kg oral): no waveform abnormalities or arrhythmias
rat micronucleus assay [3]: no direct adverse effect
protein bound [4]: 85.8%
AUC(0-24) ([5]; 1 mg single dose): 149 (67) ng * hr/mL
AUC(0-inf) ([5]; 1 mg single dose): 151 (68) ng * hr/mL
Cmax ([5]; 1 mg single dose): 43.4 (31) ng/mL
T1/2 ([5]; 1 mg single dose): 3.52 (29) hr
AUC(0-24) ([5]; 2 mg single dose): 289 (43) ng * hr/mL
AUC(0-inf) ([5]; 2 mg single dose): 296 (44) ng * hr/mL
Cmax ([5]; 2 mg single dose): 78.8 (16) ng/mL
T1/2 ([5]; 2 mg single dose): 5.43 (25) hr
AUC(0-24) ([5]; 5 mg single dose): 733 (5) ng * hr/mL
AUC(0-inf) ([5]; 5 mg single dose): 743 (5) ng * hr/mL
Cmax ([5]; 5 mg single dose): 246 (16) ng/mL
T1/2 ([5]; 5 mg single dose): 5.43 (10) hr
AUC(0-24) ([5]; 10 mg single dose): 891 (14) ng * hr/mL
AUC(0-inf) ([5]; 10 mg single dose): 914 (14) ng * hr/mL
Cmax ([5]; 10 mg single dose): 454 (40) ng/mL
T1/2 ([5]; 10 mg single dose): 9.47 (38) hr
AUC(0-24) ([5]; 20 mg single dose): 2193 (16) ng * hr/mL
AUC(0-inf) ([5]; 20 mg single dose): 2250 (16) ng * hr/mL
Cmax ([5]; 20 mg single dose): 997 (32) ng/mL
T1/2 ([5]; 20 mg single dose): 7.79 (51) hr
AUC(0-24) ([5]; 30 mg single dose): 3263 (38) ng * hr/mL
AUC(0-inf) ([5]; 30 mg single dose): 3395 (38) ng * hr/mL
Cmax ([5]; 30 mg single dose): 1140 (38) ng/mL
T1/2 ([5]; 30 mg single dose): 8.12 (18) hr
increase of AUC0-inf in the presence of ketoconazole [5, 8]: ~295%
increase of AUC0-last in the presence of ketoconazole [5, 8]: ~285%
increase of Cmax in the presence of ketoconazole [5, 8]: approximately 66%
excretion of unchanged compound in urine ([5]; healthy subjects): < 2 % of the administered dose
accumulation ([5]; healthy subjects, 14 days of Q12 h oral administration): less than 2 fold
half-life [5, 9]: 3.46 h
AUC [5, 9]: 124 ng·h/mL
Cmax ([5]; human, plasma, oral, 1 mg, 1 mg Q12 h, Day 1, read-out: Cmax): 49.1 ng/mL
half-life [5, 10]: 6.46 h
AUC [5, 10]: 199 ng·h/mL
Cmax ([5]; human, plasma, oral, 1 mg, 1 mg Q12 h, Day 14, read-out: Cmax): 66.8 ng/mL
half-life [5, 11]: 6.34 h
AUC [5, 11]: 290 ng·h/mL
Cmax ([5]; human, plasma, oral, 2 mg, 2 mg Q12 h, Day 1, read-out: Cmax): 101 ng/mL
half-life [5, 12]: 9.75 h
AUC [5, 12]: 524 ng·h/mL
Cmax ([5]; human, plasma, oral, 2 mg, 2 mg Q12 h, Day 14, read-out: Cmax): 140 ng/mL
half-life [5, 13]: 5.76 h
AUC [5, 13]: 774 ng·h/mL
Cmax ([5]; human, plasma, oral, 5 mg, 5 mg Q12 h, Day 1, read-out: Cmax): 257 ng/mL
half-life [5, 14]: 8.32 h
AUC [5, 14]: 1290 ng·h/mL
Cmax ([5]; human, plasma, oral, 5 mg, 5 mg Q12 h, Day 14, read-out: Cmax): 355 ng/mL
half-life [5, 15]: 6 h
AUC [5, 15]: 1530 ng·h/mL
Cmax ([5]; human, plasma, oral, 10 mg, 10 mg Q24 h, Day 1, read-out: Cmax): 553 ng/mL
half-life [5, 16]: 11.7 h
AUC [5, 16]: 2230 ng·h/mL
Cmax ([5]; human, plasma, oral, 10 mg, 10 mg Q24 h, Day 14, read-out: Cmax): 605 ng/mL
AUC(0-t) ([5]; human, plasma, healthy subjects, 5 mg BID, 14 days of oral dosing, read-out: mean AUC0-24 hr): 2580 ng·h/mL
NOAEL ([6]; 13-week rat study, oral gavage): 150 mg/m^2/day
NOAEL at 13 weeks ([6]; both, rat, in vivo, po): 25 mg/kg/day
mean AUC0-24 hr at the NOAEL ([6]; rat, Day 91, combined sexes): 14150 ng·h/mL
IgE ([7]; healthy subjects): No increases
deaths and serious adverse events ([7]; healthy subjects): no deaths and no serious adverse events
safety laboratory or ECG abnormalities ([7]; healthy subjects): No clinically significant safety laboratory or electrocardiogram (ECG) abnormalities
QTcF greater than 500 msec ([7]; healthy subjects, serial ECGs): No subject
largest change from baseline in QTcF ([7]; healthy subjects, serial ECGs): 37 ms
tolerability ([7]; healthy subjects, single doses up to 30 mg, up to 10 mg daily for 14 days): well tolerated; also recorded: well-tolerated
headache [7, 17]: 8%
myalgia [7, 17]: 6%
nasopharyngitis [7, 17]: 6%
P-gp substrate (human P-glycoprotein): is a P-gp substrate
inhibition of P-gp transport (human P-glycoprotein): has the potential to inhibit the active transport of other P-gp substrates
half-life (Pharmacokinetics, mouse): less than 2 hrs
AUC(0-inf) (Pharmacokinetics, mouse; BALB/c, in vivo, IV, 10 mg/kg): 1900 ng·h/mL
AUC(0-t) (Pharmacokinetics, mouse; BALB/c, in vivo, IV, 10 mg/kg): 1900 ng·h/mL
Cmax (Pharmacokinetics, mouse; BALB/c, in vivo, IV, 10 mg/kg): 5560 ng/mL
Tmax (Pharmacokinetics, mouse; BALB/c, in vivo, IV, 10 mg/kg): 4.98 min
clearance (Pharmacokinetics, mouse; BALB/c, in vivo, IV, 10 mg/kg): 87.5 mL/min/kg
half-life (Pharmacokinetics, mouse; BALB/c, in vivo, IV, 10 mg/kg, read-out: T1/2 (converted)): 0.22 h
Vd (Pharmacokinetics, mouse; BALB/c, in vivo, IV, 10 mg/kg, read-out: Vss): 1.14 L/kg
AUC(0-t) (Pharmacokinetics, mouse; BALB/c, in vivo, PO, 10 mg/kg): 137 ng·h/mL
Cmax (Pharmacokinetics, mouse; BALB/c, in vivo, PO, 10 mg/kg): 390 ng/mL
Tmax (Pharmacokinetics, mouse; BALB/c, in vivo, PO, 10 mg/kg): 4.98 min
Foral (Pharmacokinetics, mouse; PO, 10 mg/kg, calculated using AUC0-last): 7% and 7^i %
cell membrane permeability (Caco-2 cell monolayers): moderate

— patent US20140120083A1, “TREATMENT OF CANCERS USING PI3 KINASE ISOFORM MODULATORS” (INFINITY PHARMACEUTICALS, INC., priority 2012, published 2014)
